These results are taken from patent US10301279B2, “Piperidine carboxamide compound, preparation method, and use thereof” (Institute of Pharmacology and Toxicology Academy of …, priority 2013, dated 2019).

Like-named read-outs stand apart in the source and are kept apart here.

Assay [1] concerns the target T1, Hsp70 (Homo sapiens, UniProt P0DMV8).
T1 construct: purchased Enzo Life Sciences ADI-ESP-550-D
The assay can be described thus: Measurement of affinity for Hsp70 (BIACORE T100, CM5 chip). Type of assay: binding. The settings on record: for effect in preliminary screening of binding to Hsp70, compared with positive compound VER-155008: at 10 μm; for Kd: steady state model, 25° C., PBS containing 5% DMSO. The protocol:
1. Instrument: BIACORE T100 biomolecular interaction analyzer (GE, USA)
2. Reagents: PBS Buffer (×10), P20, CM5 chip (GE, USA), Hsp70 (human, ADI-ESP-550-D), manufactured by Enzo Life Sciences.
30 mM mother liquor of compound was formulated with DMSO, which was diluted to 2 mM application solution with DMSO before use. 5 μl of the application solution was taken and diluted with 95 μl 1.05×PBS to 100 μM, and then diluted in turn with PBS containing 5% DMSO to 10, 3, 1, 0.3, 0.1, 0.03, 0.01, 0.003 μM, […]. PBS containing 5% DMSO was used as solvent control.
Hsp70 protein was diluted with 10 mmol/L sodium acetate buffer solution (pH 5.0) to 30 μg/ml, and coupled directly on a hydrophilic carboxylmethyl dextran matrix sensor chip M5 through normalized primary amine coupling reaction, RU=11209, and then the chip was balanced for 1-2 h with PBS Buffer at […].
At a flow rate of […], with PBS containing 5% DMSO as mobile phase, at 25° C., the compound was introduced in the sequence of 0.003, 0.01, 0.03, 0.1, 0.3, 1, 3 and 10 μM, with binding time 90 seconds, and dissociation time 120 seconds.
According to binding characteristics between the compounds and protein, the binding constant (equilibrium dissociation constant KD) between drugs and protein was calculated by selecting steady state model with the formula: Conc*Rmax/[conc+KD]+offset.
At a flow rate of […], PBS containing 5% DMSO as mobile phase, at 25° C., the compound was injected in the order of 0.003, 0.01, 0.03, 0.1, 0.3, 1, 3, and 10 μM, with the binding time of 90 sec, and the dissociation time of 120 sec.

The next assay concerns BT/Lap^R1.0. The assay can be described thus: Cell survival (ATPlite/CellTiter-Glo luminescence), alone and combined with lapatinib. It counts as cell-based, human. Conditions: BT/Lap^R1.0 cells; for Survival rate %: 72 hours. The protocol:
(§1) Cells plating: a 100 mm culture dish with overgrown adherent cells was digested with 1 ml 0.25% trypsin (GIBCO) at 37° C. for 5 min, and the reaction was terminated with 2 ml culture medium (containing 10% FBS, GIBCO). The cells were scattered and collected, after counting, diluted to 1×10^5 cells/ml, and seeded into a 96-well plate at 50 μl/well, 5000 cells/well, excluding the peripheral circle of wells to which no cell was added, but PBS was added, 60 wells in total, and then incubated at 37° C. for 24 hours for adhering.
(§2) Test after incubation at 37° C. for 72 hours: […] of ATPlite kit substrate solution was added in each well, and vibrated for 3 min, followed by placing aside in darkness for 10 min, and then supernatant 100 μl/well was taken and placed on aluminescence test plate; the luminescence test plate that has been fully incubated was placed in a luminescence test instrument, to read luminescence value.
(§3) (1) Cell survival rate (%)=Experimental group RLU/control group RLU×100%. The experimental data were subjected to data analysis and processing by utilizing GraphPad software.
(§4) (2) The nature of interaction between two drugs was evaluated by using coefficient of drug interaction (CDI), CDI being calculated as follows: CDI=AB/(A×B)×100%. As calculated according to the number of viable cells (luminescence value), when CDI<1, the nature of interaction between two drugs is synergism; when CDI<0.7, the synergism is very significant; when CDI=1, the nature of interaction between two drugs is addition; when CDI>1, the nature of interaction between two drugs is antagonism.
For orientation: Cellular ATP, detected with luciferase, serves as a proxy for viable cell number.

A further assay has as its system BT474. Described as above. It counts as cell-based, human. The settings on record: BT474 cells; for Survival rate %: 72 hours. The protocol:
as §1, §2, §3, §4

The next assay relates to MDA-MB-361. The assay is described as above. Type of assay: cell-based, human. The settings on record: MDA-MB-361 cells, 72 hours. The protocol: as §1, §2, §3, §4
The subject of the next assay is MDA-MB-453. The assay is described as above. Type of assay: cell-based, human. Conditions: MDA-MB-453 cells; for Survival rate %: 72 hours. The protocol: as §1, §2, §3, §4
The next assay deals with SK-BR3. Described as above. Type of assay: cell-based, human. Conditions: SK-BR3 cells; for Survival rate %: 72 hours. The protocol: as §1, §2, §3, §4
Another assay relates to SK/Lap^R1.0. The assay is described as above. The settings on record: SK/Lap^R1.0 cells, 72 hours. It counts as cell-based, human. The protocol: as §1, §2, §3, §4
Assay [2] concerns the target T1, Hsp70. The settings on record: literature value (Cancer Chemother Pharmacol 2010, 66: 535-545); read-out: affinity for Hsp70, literature value; cited from earlier work.
The mark [3] stands for this setting: Example 30 10 μM alone (Lapatinib 0).
Where [4] appears, read: Example 30 10 μM combined with Lapatinib 1 μM.
Where [5] appears, read: Example 30 10 μM with Lapatinib 1 μM, CDI<1 synergism.
The mark [6] stands for this setting: Lapatinib 1 μM alone (Example 30 0 μM).

T1 sequence (P0DMV8 whole entry): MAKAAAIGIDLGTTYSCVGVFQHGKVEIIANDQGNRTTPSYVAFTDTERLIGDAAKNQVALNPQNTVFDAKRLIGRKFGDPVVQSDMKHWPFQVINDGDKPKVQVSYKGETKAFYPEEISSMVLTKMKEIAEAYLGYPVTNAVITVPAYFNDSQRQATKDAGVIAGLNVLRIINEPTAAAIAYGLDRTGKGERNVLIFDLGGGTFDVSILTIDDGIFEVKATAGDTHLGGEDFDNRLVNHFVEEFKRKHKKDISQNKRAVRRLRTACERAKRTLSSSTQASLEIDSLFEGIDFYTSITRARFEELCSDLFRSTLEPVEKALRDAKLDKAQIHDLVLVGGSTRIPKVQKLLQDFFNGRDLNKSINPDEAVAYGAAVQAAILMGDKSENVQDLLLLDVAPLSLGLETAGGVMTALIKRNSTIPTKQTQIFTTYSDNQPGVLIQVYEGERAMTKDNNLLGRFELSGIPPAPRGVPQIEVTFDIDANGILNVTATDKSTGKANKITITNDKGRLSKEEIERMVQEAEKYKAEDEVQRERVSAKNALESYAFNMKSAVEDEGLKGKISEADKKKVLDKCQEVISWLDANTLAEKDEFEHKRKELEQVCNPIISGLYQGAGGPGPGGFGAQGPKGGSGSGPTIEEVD

On to `CSc1nccc(N2CCC(N(C)C(=O)O[C@H]3CCN(S(=O)(=O)c4cccs4)C3)CC2)n1` [Example 13, (S)-[1-(2-thienylsulfonyl)pyrrolidin-3-yl] N-methyl-N-[1-(2-methylthiopyrimidin-4-yl)piperidin-4-yl]carbamate], for which, at Hsp70 [1], the “effect in preliminary screening of binding to Hsp70, compared with positive compound VER-155008” value is “equivalent to that of positive compound VER-155008” and the Kd is 520 nM.
Turning to `CN(C(=O)Cn1ccnc1)C1CCN(c2nccc(Cl)n2)CC1` [Example 30, N-methyl-N-[1-(4-chloropyrimidin-2-yl)piperidin-4-yl]-[2-(imidazol-1-yl)]acetamide], the Survival rate % in the assay with BT/Lap^R1.0 (setting [3]) is 92.5%; with BT/Lap^R1.0 (setting [4]) it was 50.6%; in the assay with BT474 (setting [3]) it was 93.5%; with BT474 (setting [4]) it was 24.8%; with MDA-MB-361 (setting [3]), 104.1%; with MDA-MB-361 (setting [4]) it was 69.1%. Moreover, the Survival rate % in the assay on MDA-MB-453 (setting [3]) amounted to 82.8%; in the assay on MDA-MB-453 (setting [4]), 36.6%; with SK-BR3 (setting [3]), 83.8%; in the assay on SK-BR3 (setting [4]), 24.9%; with SK/Lap^R1.0 (setting [3]), 94.2%; with SK/Lap^R1.0 (setting [4]), 56.9%. For the same molecule, the “CDI (coefficient of drug interaction)” value with BT/Lap^R1.0 (setting [5]) is 1.03; in the assay with BT474 (setting [5]) it was 1.05; in the assay on MDA-MB-453 (setting [5]) it was 1.26; with SK-BR3 (setting [5]) it was 1.13. Also, the “effect in preliminary screening of binding to Hsp70, compared with positive compound VER-155008” value at Hsp70 [1] is “equivalent to that of positive compound VER-155008”. At Hsp70 [1], this molecule had a Kd of 225 nM.
In the case of `N#Cc1ccc(COC[C@H]2O[C@@H](n3c(NCc4ccc(Cl)c(Cl)c4)nc4c(N)ncnc43)[C@H](O)[C@@H]2O)cc1` [VER-155008], the Kd at Hsp70 [2] was 300 nM.
As for `CSc1nccc(N2CCC(N(C)C(=O)OC(C)(C)C)CC2)n1` [Example 6, t-butyl N-methyl-N-[1-(2-methylthiopyrimidin-4-yl)piperidin-4-yl]carbamate], on Hsp70 [1], the “effect in preliminary screening of binding to Hsp70, compared with positive compound VER-155008” value is reported as “equivalent to that of positive compound VER-155008” and the Kd worked out at 12700 nM.
Regarding `CN(C(=O)OC(C)(C)C)C1CCN(c2ccnc(Cl)n2)CC1` [Example 2, t-butyl N-methyl-N-[1-(2-chloropyrimidin-4-yl)piperidin-4-yl]carbamate], on Hsp70 [1], the “effect in preliminary screening of binding to Hsp70, compared with positive compound VER-155008” value is “equivalent to that of positive compound VER-155008” and the Kd amounted to 247 nM.
For `CS(=O)(=O)CCNCc1ccc(-c2ccc3ncnc(Nc4ccc(OCc5cccc(F)c5)c(Cl)c4)c3c2)o1` [Lapatinib, reference compound], the Survival rate % in the assay on BT/Lap^R1.0 (setting [6]) is 53.0%; in the assay with BT474 (setting [6]) it was 25.1%; in the assay with MDA-MB-361 (setting [6]), 70.4%; with SK-BR3 (setting [6]), 26.3%; in the assay with SK/Lap^R1.0 (setting [6]) it was 92.7%.
`CN(C(=O)OC(C)(C)C)C1CCN(c2cc(Cl)ncn2)CC1` [Example 3, t-butyl N-methyl-N-[1-(6-chloropyrimidin-4-yl)piperidin-4-yl]carbamate]: at Hsp70 [1], the “effect in preliminary screening of binding to Hsp70, compared with positive compound VER-155008” value is on record as “equivalent to that of positive compound VER-155008” and the Kd was determined as 525 nM.
Turning to `COc1nccc(N2CCC(N(C)C(=O)OC(C)(C)C)CC2)n1` [Example 5, t-butyl N-methyl-N-[1-(2-methoxypyrimidin-4-yl)piperidin-4-yl]carbamate], the “effect in preliminary screening of binding to Hsp70, compared with positive compound VER-155008” value on Hsp70 [1] was “equivalent to that of positive compound VER-155008”.
Consider `COc1ccnc(N2CCC(N(C)C(=O)Cn3cncn3)CC2)n1` [Example 42, N-methyl-N-[1-(4-methoxypyrimidin-2-yl)piperidin-4-yl]-2-(1H-1,2,4-triazol-1-yl) acetamide], for which, at Hsp70 [1], the “effect in preliminary screening of binding to Hsp70, compared with positive compound VER-155008” value is given as “equivalent to that of positive compound VER-155008” and the Kd was found to be 434 nM.
In the same order, the values of `CN(C(=O)OC(C)(C)C)C1CCN(c2nccc(Cl)n2)CC1` [Example 1, t-butyl N-methyl-N-[1-(4-chloropyrimidin-2-yl)piperidin-4-yl]carbamate] are “equivalent to that of positive compound VER-155008” and 2190 nM.
